Reference: publication PMC6233306 (Bioorganic & medicinal chemistry letters, 2018)

These compounds were tested on FadD32 mutant strains of Mtb (E120 and F291).
Assay type: cell-based, Mycobacterium tuberculosis

Row | SMILES | FadD32 mutant MIC90 | activity versus the E120 and F291 mutants compared to wild-type
1 | Cc1cc2nccc(-c3cncnc3)c2c(C)c1-c1ccc(CN2CCOCC2)cc1 [Compound 15n] | 100 µM | markedly less activity
2 | Cc1cc2nccc(-c3ccccc3)c2c(C)c1-c1ccc(CN2CCOCC2)cc1 [Compound 8] |  | markedly less activity
3 | Cc1cc2nccc(-c3ccnn3C)c2c(C)c1-c1ccc(CN2CCOCC2)cc1 [Compound 15m] | 100 µM | markedly less activity
4 | CNC(=O)c1cc(-c2ccccc2Cl)c2c(C)c(-c3ccncc3)c(C)cc2n1 [Compound 21b] |  | markedly less activity
